According to patent publication US12171756B2, “NLRP3 modulators” (Innate Tumor Immunity, Inc., priority 2017, dated 2024):

Tests used:
[1] = system: IL-1β production in PMA-differentiated THP-1 cells; assay: Measurement of IL-1β production in PMA-differentiated THP-1 cells (ELISA, 4 hours); format: cell-based, human; details: Homo sapiens, THP-1, human IL-1β production, assayed using one or more of the described procedures, read-out: NLRP3 hIL1B IC50
Description: Measurement of IL-1β Production in PMA-Differentiated THP-1 Cells THP-1 cells were purchased from the American Type Culture Collection and sub-cultured according to instructions from the supplier. Prior to experiments, cells were cultured in RPMI 1640 containing 10% heat inactivated FBS, penicillin (100 units/ml) and streptomycin (100 μg/ml), and maintained in log phase prior to experimental setup. Prior to the experiment THP-1 were treated with PMA (Phorbol 12-myristate 13-acetate) (10 μg/ml) for 24 hours. The day of the experiment the media was removed and attaching cells were treated with trypsin for 2 minutes, cells were then collected, washed with PBS (phosphate buffer saline), spin down, resuspended in 2% heat inactivated FBS with RPMI at a concentration of 1×10^6 cells/ml, and 100 μl was plated in a 96 well plate. Compounds were dissolved in dimethyl sulfoxide (DMSO) and added to the culture medium to achieve desired concentration (e.g. 100, 30, 10, 3, 1, 0.3 or 0.1 μM). Cells were incubated with compounds for 4 hours. Cell free supernatant was collected and the production of IL-1β was evaluated by ELISA. A vehicle only control was run concurrently with each experiment. Final DMSO concentration was 1%.

human TLR8 = target: T1, human TLR8 (Homo sapiens, UniProt Q9NR97); assay: In vitro human TLR8 binding reporter assay (HEK-Blue, NF-kB/AP1-inducible SEAP); format: cell-based; details: HEK-Blue human TLR8 SEAP reporter cells; activity range classes; read-out: TLR8 Agonist EC50
T1 construct: host or cells: human HEK-Blue cells (HEK293-derived) co-expressing TLR8 and an NF-kB/AP1-inducible SEAP reporter
T1 sequence (Q9NR97 27-1041): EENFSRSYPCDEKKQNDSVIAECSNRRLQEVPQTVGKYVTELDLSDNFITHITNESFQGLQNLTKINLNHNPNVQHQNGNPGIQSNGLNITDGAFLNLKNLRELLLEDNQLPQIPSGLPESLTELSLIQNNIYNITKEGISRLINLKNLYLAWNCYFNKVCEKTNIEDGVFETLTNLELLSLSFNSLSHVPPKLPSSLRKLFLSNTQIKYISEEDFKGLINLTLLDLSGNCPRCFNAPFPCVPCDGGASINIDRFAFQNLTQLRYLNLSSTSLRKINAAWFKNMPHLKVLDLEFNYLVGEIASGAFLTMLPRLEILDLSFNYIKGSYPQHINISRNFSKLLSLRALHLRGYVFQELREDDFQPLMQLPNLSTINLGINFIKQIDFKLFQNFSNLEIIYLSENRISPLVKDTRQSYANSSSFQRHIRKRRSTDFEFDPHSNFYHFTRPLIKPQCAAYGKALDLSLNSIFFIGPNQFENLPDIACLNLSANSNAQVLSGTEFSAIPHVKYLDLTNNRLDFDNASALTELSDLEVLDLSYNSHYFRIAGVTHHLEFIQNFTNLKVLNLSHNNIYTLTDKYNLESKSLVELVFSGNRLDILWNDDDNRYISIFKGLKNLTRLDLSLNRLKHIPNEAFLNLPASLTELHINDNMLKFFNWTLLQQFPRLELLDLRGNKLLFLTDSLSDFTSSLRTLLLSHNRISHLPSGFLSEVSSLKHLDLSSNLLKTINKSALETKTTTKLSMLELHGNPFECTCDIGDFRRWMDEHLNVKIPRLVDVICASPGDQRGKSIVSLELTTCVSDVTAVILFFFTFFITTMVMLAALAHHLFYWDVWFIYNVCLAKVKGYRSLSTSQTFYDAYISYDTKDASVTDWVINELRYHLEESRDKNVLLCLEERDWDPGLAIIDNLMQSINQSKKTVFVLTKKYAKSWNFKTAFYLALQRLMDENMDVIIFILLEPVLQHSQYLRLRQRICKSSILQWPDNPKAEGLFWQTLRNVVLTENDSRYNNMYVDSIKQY
Description: (§1) In Vitro Human TLR7 and TLR8 Binding Reporter Assays
(§2) Logarithmically-growing human HEK-Blue cells co-expressing a TLR7 or TLR8 gene and a NF-kB/AP1-inducible SEAP (secreted embryonic alkaline phosphatase; Invivogen, San Diego, CA) reporter gene are added to individual wells of a 384-well plate (15,000 cells per 20 μL per well) and maintained for 24 h at 37° C., 5% CO2. Test compounds or DMSO are distributed to separate wells the next day using acoustic liquid handling technology (100 nL per well) and cells are subsequently incubated for 18 h at 37° C., 5% CO2. Cellular SEAP production is measured using an Envision plate reader instrument thirty minutes after adding freshly-made Quanti-Blue reagent (prepared by following manufacturer instructions; Invivogen, San Diego, CA) to the HEK-Blue TLR Nf-kB-SEAP cell reactions. All EC50 values (half-maximal effective concentration) are determined using proprietary data analysis software. Normalized EC50 value=absolute value determined by setting 100% Ymax using a reference standard RLU (relative light unit) values from cells treated with 50 μM of the reference standard.

human TLR7 = target: T2, human TLR7 (Homo sapiens, UniProt Q9NYK1); assay: In vitro human TLR7 binding reporter assay (HEK-Blue, NF-kB/AP1-inducible SEAP); format: cell-based; details: HEK-Blue human TLR7 SEAP reporter cells; activity range classes; read-out: TLR7 Agonist EC50
T2 construct: host or cells: human HEK-Blue cells (HEK293-derived) co-expressing TLR7 and an NF-kB/AP1-inducible SEAP reporter
T2 sequence (Q9NYK1 27-1049): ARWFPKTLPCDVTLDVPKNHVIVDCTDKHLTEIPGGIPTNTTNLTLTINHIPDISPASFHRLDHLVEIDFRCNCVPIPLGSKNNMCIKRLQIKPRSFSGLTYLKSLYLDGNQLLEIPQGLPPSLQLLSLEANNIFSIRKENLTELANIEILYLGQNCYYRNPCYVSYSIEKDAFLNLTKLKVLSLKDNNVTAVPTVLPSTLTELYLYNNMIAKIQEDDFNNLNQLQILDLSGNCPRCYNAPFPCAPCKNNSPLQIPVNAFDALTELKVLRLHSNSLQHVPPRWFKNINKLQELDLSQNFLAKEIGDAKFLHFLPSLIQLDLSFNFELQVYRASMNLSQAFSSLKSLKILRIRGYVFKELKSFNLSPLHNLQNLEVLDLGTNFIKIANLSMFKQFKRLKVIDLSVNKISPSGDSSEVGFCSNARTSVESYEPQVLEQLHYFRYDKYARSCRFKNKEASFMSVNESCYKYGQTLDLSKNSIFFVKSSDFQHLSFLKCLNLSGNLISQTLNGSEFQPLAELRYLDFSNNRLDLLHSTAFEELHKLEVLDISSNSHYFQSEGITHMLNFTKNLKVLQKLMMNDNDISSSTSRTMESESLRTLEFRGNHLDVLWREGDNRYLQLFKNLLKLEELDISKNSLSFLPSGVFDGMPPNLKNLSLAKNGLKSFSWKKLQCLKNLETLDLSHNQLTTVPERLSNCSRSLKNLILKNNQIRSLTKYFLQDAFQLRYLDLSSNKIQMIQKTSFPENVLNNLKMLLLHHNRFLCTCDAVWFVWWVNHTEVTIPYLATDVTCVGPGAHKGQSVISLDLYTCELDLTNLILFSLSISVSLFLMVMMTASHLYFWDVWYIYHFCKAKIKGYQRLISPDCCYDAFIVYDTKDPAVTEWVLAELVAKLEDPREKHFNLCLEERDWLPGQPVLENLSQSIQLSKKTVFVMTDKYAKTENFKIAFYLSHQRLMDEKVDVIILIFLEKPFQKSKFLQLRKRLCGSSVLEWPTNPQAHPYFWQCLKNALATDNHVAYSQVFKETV
Description: as §1, §2

| IC50 [1] [µM] | EC50 (human TLR8) [µM] | EC50 (human TLR7) [µM] | Structure (SMILES) |
| --- | --- | --- | --- |
| 0.58 | > 100 | > 100 | Nc1cc(NC2CCCCC2)c2ccc(-c3ccn[nH]3)cc2n1 [Compound 281] |
| 0.57 | > 100 | > 100 | Nc1cc(NCCc2nccs2)c2ccc(-n3cccn3)cc2n1 [Compound 297] |
| 0.14 | > 100 | > 100 | Nc1cc(NCc2cccnn2)c2ccc(-c3ccn[nH]3)cc2n1 [Compound 149] |
| 13.3 | > 100 | > 100 | Nc1cc(O[C@H]2CCNC2=O)c2ccc(-c3ccn[nH]3)cc2n1 [Compound 199] |
| 0.69 | > 100 | > 100 | Nc1nc2cc(-c3cc[nH]n3)ccc2cc1CCCOCc1ccccc1 [Compound 104, 3-[3-(benzyloxy)propyl]-7-(1H-pyrazol-3-yl)quinolin-2-amine] |
| 14.3 | > 100 | > 100 | CC(=O)NCCc1cc(N)nc2cc(-c3ccn[nH]3)ccc12 [Compound 217, N-(2-(2-amino-7-(1H-pyrazol-5-yl)quinolin-4-yl)ethyl)acetamide] |
| 0.63 | > 100 | > 100 | Nc1cc(OCC2(CO)CC2)c2ccc(-c3ccn[nH]3)cc2n1 [Compound 192] |
| 0.63 | > 100 | > 100 | Nc1cc(OCC2(CO)CCC2)c2ccc(-c3ccn[nH]3)cc2n1 [Compound 335] |
| 5.8 | > 100 | > 100 | Nc1cc(OC[C@H](O)CN2CCOCC2)c2ccc(-c3ccn[nH]3)cc2n1 [Compound 349, (R)-1-((2-amino-7-(1H-pyrazol-5-yl)quinolin-4-yl)oxy)-3-morpholinopropan-2-ol] |
| 0.09 | > 100 | > 100 | Nc1cc(N[C@H]2C[C@H](O)C2)c2ccc(-c3ccn[nH]3)cc2n1 [Compound 233] |
| 0.1 | > 100 | > 100 | Nc1cc(NCc2cc[nH]n2)c2ccc(-c3ccn[nH]3)cc2n1 [Compound 128, N4-((1H-pyrazol-3-yl)methyl)-7-(1H-pyrazol-5-yl)quinoline-2,4-diamine] |

The next lines start with the compound.

| Structure (SMILES) | IC50 [1] [µM] | EC50 (human TLR8) [µM] | EC50 (human TLR7) [µM] |
| --- | --- | --- | --- |
| Nc1cc(OCCc2ccsc2)c2ccc(-c3ccsc3)cc2n1 [Compound 331] | 14.6 | > 100 | > 100 |
| COCc1cc2ccc(-c3ccn[nH]3)cc2nc1N [Compound 113, 3-(methoxymethyl)-7-(1H-pyrazol-5-yl)quinolin-2-amine] | 11.9 | > 100 | > 100 |
| Nc1cc(CCCO)c2ccc(-c3ccsn3)cc2n1 [Compound 219, 3-(2-amino-7-(isothiazol-3-yl)quinolin-4-yl)propan-1-ol] | 2.75 | > 100 | > 100 |
| CN(C)c1cc(N)nc2cc(-c3ccn[nH]3)ccc12 [Compound 166] | 0.56 | > 100 | > 100 |
| Nc1cc(N2CCC[C@@H]2CO)c2ccc(-c3ccn[nH]3)cc2n1 [Compound 272] | 6.22 | > 100 | > 100 |
| COc1cc2c(NCCCO)cc(N)nc2cc1-c1ccn[nH]1 [Compound 320] | 27.7 | > 100 | > 100 |
| Nc1nc2cc(-c3cc[nH]n3)ccc2cc1CCCCCOCc1ccccc1 [Compound 106, 3-[5-(benzyloxy)pentyl]-7-(1H-pyrazol-3-yl)quinolin-2-amine] | 3.82 | > 100 | > 100 |
| CN(C)C(=O)NCCCNc1cc(N)nc2cc(-c3ccn[nH]3)ccc12 [Compound 214, 3-(3-((2-amino-7-(1H-pyrazol-5-yl)quinolin-4-yl)amino)propyl)-1,1-dimethylurea, 2TFA] | 4.61 | > 100 | > 100 |
| Nc1cc(OCc2ccn[nH]2)c2ccc(-c3ccn[nH]3)cc2n1 [Compound 313, 4-((1H-pyrazol-5-yl)methoxy)-7-(1H-pyrazol-5-yl)quinolin-2-amine] | 0.11 | > 100 | > 100 |
| CCNCCCc1cc2ccc(-c3cc[nH]n3)cc2nc1N [Compound 110, 3-[3-(ethylamino)propyl]-7-(1H-pyrazol-3-yl)quinolin-2-amine] | 1.64 | > 100 | > 100 |
| Nc1cc(NCCc2cccnn2)c2ccc(-n3cccn3)cc2n1 [Compound 343, 7-(1H-pyrazol-1-yl)-N4-(2-(pyridazin-3-yl)ethyl)quinoline-2,4-diamine] | 0.61 | > 100 | > 100 |
| CS(=O)(=O)Nc1cccc(CNc2cc(N)nc3cc(-c4ccn[nH]4)ccc23)c1 [Compound 257] | 0.68 | > 100 | > 100 |
| Nc1nc2cc(-c3ccn[nH]3)ccc2cc1CCCN1CCCCC1 [Compound 114] | 4.25 | > 100 | > 100 |
| Nc1cc(CCCCO)c2ccc(-c3ccn[nH]3)cc2n1 [Compound 218, 4-(2-amino-7-(1H-pyrazol-5-yl)quinolin-4-yl)butan-1-ol] | 1.19 | > 100 | > 100 |
